This is an account of results in US20230365554A1, “SUBSTITUTED PYRROLO-PYRIDINONE DERIVATIVES AND THERAPEUTIC USES THEREOF” (The Broad Institute, Inc., priority 2020, published 2023).

The target of test [1] is human CSNK1A1 (Homo sapiens (Human), UniProt P48729). Kind of test: CSNK1A1 Assay 2 (ADP-Glo, 1 μM ATP). Conditions: median, Table 2, read-out: CSNK1A1 Assay 2 IC50 [mol/l] (median). Type of test: biochemical. The method, boiled down: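 GST-tagged full-length human CSNK1A1 from insect cells, preincubated 15 min with compound, then reacted 30 min at 22° C with 1 μM ATP and 30 μM biotinylated peptide substrate in pH 7.5 HEPES buffer. ADP measured by ADP-Glo luminescence; normalised to no-inhibitor (0%) and no-enzyme (100%) controls.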
Sequence of human CSNK1A1 (P48729 whole entry): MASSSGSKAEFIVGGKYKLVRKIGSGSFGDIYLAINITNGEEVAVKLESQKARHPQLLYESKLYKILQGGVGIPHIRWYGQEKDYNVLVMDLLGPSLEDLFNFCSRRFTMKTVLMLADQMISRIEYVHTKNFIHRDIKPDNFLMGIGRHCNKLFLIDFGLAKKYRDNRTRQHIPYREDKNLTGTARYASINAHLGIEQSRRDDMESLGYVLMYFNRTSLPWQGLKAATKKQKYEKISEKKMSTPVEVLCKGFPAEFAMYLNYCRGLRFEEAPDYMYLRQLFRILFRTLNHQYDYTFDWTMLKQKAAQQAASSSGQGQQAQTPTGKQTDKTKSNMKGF
On the technique in general: In ADP-Glo the light output rises with the ADP produced.

Test [2] addresses human CSNK1D (Homo sapiens (Human), UniProt P48730). Put plainly: CSNK1D assay (ADP-Glo, 1 μM ATP). Type of test: biochemical. As to conditions: median, Table 2, read-out: CSNK1D IC50 [mol/l] (median). The method in brief: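 GST-tagged full-length human CSNK1D (baculovirus/insect cell; typically about 0.5 ng/μL) preincubated with compound 15 min, then reacted 30 min at 22 °C with 1 μM ATP and 30 μM biotinylated peptide (final) in HEPES pH 7.5 buffer. ADP quantified by ADP-Glo luminescence; data normalised to no-inhibitor and no-enzyme controls.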

The structures appear in SMILES notation.

Sequence of human CSNK1D (P48730 whole entry): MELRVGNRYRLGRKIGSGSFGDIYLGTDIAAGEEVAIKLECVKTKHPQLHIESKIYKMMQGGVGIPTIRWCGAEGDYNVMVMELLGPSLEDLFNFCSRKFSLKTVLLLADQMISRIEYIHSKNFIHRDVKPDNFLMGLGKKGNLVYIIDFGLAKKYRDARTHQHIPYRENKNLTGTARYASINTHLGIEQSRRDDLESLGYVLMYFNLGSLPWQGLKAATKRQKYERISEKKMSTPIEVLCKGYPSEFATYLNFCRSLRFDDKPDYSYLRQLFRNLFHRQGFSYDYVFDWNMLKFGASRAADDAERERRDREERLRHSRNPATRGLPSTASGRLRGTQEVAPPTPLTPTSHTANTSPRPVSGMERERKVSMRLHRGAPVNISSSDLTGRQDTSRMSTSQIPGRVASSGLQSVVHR

On to `O=C1N[C@@H]2CCC[C@@H]2c2[nH]c(-c3ccnc(NC(=O)C(CC(F)F)c4ccc(F)cc4)c3)c(Nc3ccccc3)c21` (single isomer, unassigned; (+)) [Example 25, (+)-(2R or S)—N-{4-[cis-3-anilino-4-oxo-1,4,5,5a,6,7,8,8a-octahydrocyclopenta[b]pyrrolo[2,3-d]pyridin-2-yl]pyridin-2-yl}-4,4-difluoro-2-(4-fluorophenyl)butanamide], for which the IC50 worked out at 2.3 nM in test [1] and 3.1 nM in test [2].
The like results for `CC1CN(C)C(=O)c2c1[nH]c(-c1ccnc(NC(=O)Cc3ccc(F)cc3)c1)c2Nc1ccccc1` (single isomer, unassigned; (-)) [Example 7, (−)-N-{4-[3-anilino-5,7-dimethyl-4-oxo-4,5,6,7-tetrahydro-1H-pyrrolo[3,2-c]pyridin-2-yl]pyridin-2-yl}-2-(4-fluorophenyl)acetamide] were, in that order, 5.5 nM and 11 nM.
The like results for `O=C1N[C@@H]2CCC[C@@H]2c2[nH]c(-c3ccnc(NC(=O)C(CC(F)F)c4ccc(F)cc4)c3)c(Nc3ccccc3)c21` (single isomer, unassigned; (-)) [Example 23, (−)-(2R or S)—N-{4-[cis-3-anilino-4-oxo-1,4,5,5a,6,7,8,8a-octahydrocyclopenta[b]pyrrolo[2,3-d]pyridin-2-yl]pyridin-2-yl}-4,4-difluoro-2-(4-fluorophenyl)butanamide] were, in that order, 24 nM and 38 nM.
`O=C1N[C@@H]2CCC[C@@H]2c2[nH]c(-c3ccnc(NC(=O)C(CC(F)F)c4ccc(F)cc4)c3)c(Nc3ccccc3)c21` (single isomer, unassigned; (-)) [Example 24, (−)-(2R or S)—N-{4-[cis-3-anilino-4-oxo-1,4,5,5a,6,7,8,8a-octahydrocyclopenta[b]pyrrolo[2,3-d]pyridin-2-yl]pyridin-2-yl}-4,4-difluoro-2-(4-fluorophenyl)butanamide]: the IC50 in test [1] was 30 nM; in test [2], 24 nM.
The like results for `CCC1CNC(=O)c2c1[nH]c(-c1ccnc(NC(=O)C(CC(F)F)c3ccc(F)cc3)c1)c2Nc1ccccc1` (centres unmarked) [Example 4, N-{4-[3-anilino-7-ethyl-4-oxo-4,5,6,7-tetrahydro-1H-pyrrolo[3,2-c]pyridin-2-yl]pyridin-2-yl}-4,4-difluoro-2-(4-fluorophenyl)butanamide] were, in that order, 16 nM and 16 nM.
Take `CN1CC(CC(F)(F)F)c2[nH]c(-c3ccnc(NC(=O)C(CC(F)F)c4ccc(F)cc4)c3)c(Nc3ccccc3)c2C1=O` (centres unmarked) [Example 17, N-{4-[3-anilino-5-methyl-4-oxo-7-(2,2,2-trifluoroethyl)-4,5,6,7-tetrahydro-1H-pyrrolo[3,2-c]pyridin-2-yl]pyridin-2-yl}-4,4-difluoro-2-(4-fluorophenyl)butanamide]: the IC50 in test [1] and in test [2] was 17 nM each time.
In the case of `Cn1cc(CC2CC2)c2[nH]c(-c3ccnc(NC(=O)Cc4ccc(F)cc4)c3)c(Nc3ccccc3)c2c1=O` [Example 32, N-{4-[3-anilino-7-(cyclopropylmethyl)-5-methyl-4-oxo-4,5-dihydro-1H-pyrrolo[3,2-c]pyridin-2-yl]pyridin-2-yl}-2-(4-fluorophenyl)acetamide], the figures for the IC50 in test [1] and in test [2] were 27 nM and 36 nM, respectively.
In the same order, the values of `Cc1ccccc1Nc1c(-c2ccnc(NC(=O)Cc3ccc(F)cc3)c2)[nH]c2c(CC(F)(F)F)cn(C)c(=O)c12` [Example 33, 2-(4-fluorophenyl)-N-{4-[5-methyl-3-(2-methylanilino)-4-oxo-7-(2,2,2-trifluoroethyl)-4,5-dihydro-1H-pyrrolo[3,2-c]pyridin-2-yl]pyridin-2-yl}acetamide] are 8.6 nM and 6.2 nM.
In the case of `Cn1cc(CC(F)(F)F)c2[nH]c(-c3ccnc(NC(=O)Cc4ccc(F)cc4)c3)c(Nc3ccccc3)c2c1=O` [Example 34, N-{4-[3-anilino-5-methyl-4-oxo-7-(2,2,2-trifluoroethyl)-4,5-dihydro-1H-pyrrolo[3,2-c]pyridin-2-yl]pyridin-2-yl}-2-(4-fluorophenyl)acetamide], the IC50 in test [1] came to 4.3 nM; in test [2] it was 9.1 nM.
In the same order, the values of `Cn1cc(CC(F)F)c2[nH]c(-c3ccnc(NC(=O)Cc4ccc(F)cc4)c3)c(Nc3ccccc3)c2c1=O` [Example 45, N-{4-[3-anilino-7-(2,2-difluoroethyl)-5-methyl-4-oxo-4,5-dihydro-1H-pyrrolo[3,2-c]pyridin-2-yl]pyridin-2-yl}-2-(4-fluorophenyl)acetamide] are 5.7 nM and 9.7 nM.
